Data taken from US4298735A, “Folic acid derivatives” (Union Carbide Corporation, priority 1979, dated 1981).

Assays:
whole milk folate binder = whole milk folate binder (Bos taurus, UniProt P02702); test: Folate competitive protein binding (CPB) radioassay; settings: for dose response curves generated using pteroyltyrosine [125I] as label: at high pH compared with lower pH
Description: The use of the Centria® analytical system, Union Carbide Corporation, in this example, is meant to be illustrative and other methods, both automated and manual, obvious to those skilled in the clinical diagnostic art are also within the scope of this invention.
Briefly, the Centria® system is a tri-modular instrument in which reagents are pipetted on to a multi-well transfer disk and mixed centrifugally with standards or patients' samples. After a suitable incubation period, the components are separated by a centrifugal elution of the bound and free fractions and the bound fractions counted three at a time.
Folic acid and N^5 -methyltetrahydrofolic acid standards in the range 0-20 nanograms/milliliter were prepared in 0.05 M sodium borate, pH 9.3 containing 0.1% human serum albumin. The whole milk binder was prepared according to the method of Rothenberg et al., ^(3) and dissolved in sodium borate, pH 9.3 containing 0.1% human serum albumin
(50 microliters, 20,000 cpm) plus 85 microliters of water with the limited number of binding sites contained in a 200 microliter solution of whole milk folate binder. The binding reactions may be shown as follows:
A gamma counter which counts three of the 36 positions at a time for one minute, so constructed that only the eluate bottom portion of the test tubes fits into the counter, was then used to count all samples. Sequential counting of the tubes thus required about 12 minutes. A small computer with printout capability then printed out the data after completion of the cycle.

[1] = Storage stability of the radioiodinated label; format: physicochemical; settings: stored in a 50% aqueous propylene glycol solution, ten-week period
Description: Radioiodination of biological compounds frequently leads to marked chemical instability and subsequent degradation of the radiolabel. This problem is often accentuated in the radiolabel when the materials to be radioiodinated are known to be sensitive to oxygen, light or extremes in pH, as is the case with folic acid and some derivatives.
The reaction mixture was applied to a 1×20 cm Sephadex G25, fine, (Pharmacia Fine Chemicals, Uppsala, Sweden) column hydrated with distilled water and equilibrated with 0.1 M potassium phosphate, pH 7.5. The column was eluted with 0.1 M potassium phosphate buffer and 3 ml fractions collected. The product "peak" fractions 32-34 were collected, diluted 1:1 with propylene glycol and stored below 0° C.

carboxypeptidase A = test: Enzymatic hydrolysis of pteroyltyrosine followed by UV; format: biochemical; settings: 0.025 M Tris-HCl, 2 mM zinc chloride, pH 7.3, two hours, ambient temperature
Description: Two milliliters of a solution of pteroyltrosine (0.75 mmoles/ml) in 0.025 M Tris-HCl containing 2 mM zinc chloride, pH 7.3 were diluted to 10 ml with distilled water. A portion of this solution (2 ml) was placed in a 1 cm cuvette and in another was placed 2 ml of distilled water. To each of the cuvettes was added 50 μl of a solution of 100 μl carboxypeptidase A suspension (Aldrich chemical, lot 060637) diluted with 0.9 ml of 10% lithium chloride.
The time course of the reaction was followed spectrophotometrically (uv) over a period of two hours at ambient temperature. An increase and shift in max from 280 to 277 nm and a marked decrease in absorption at 220 nm was observed. Two isosbestic points at 242 and 282 nm were visible.

Chain of whole milk folate binder (P02702 20-234): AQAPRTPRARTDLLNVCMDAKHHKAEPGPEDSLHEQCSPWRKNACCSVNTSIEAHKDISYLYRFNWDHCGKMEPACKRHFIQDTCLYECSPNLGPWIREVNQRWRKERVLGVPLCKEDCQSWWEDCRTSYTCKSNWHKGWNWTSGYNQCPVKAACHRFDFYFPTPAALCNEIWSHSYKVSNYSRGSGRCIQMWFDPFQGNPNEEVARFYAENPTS

Nc1nc2ncc(CNc3ccc(C(=O)N[C@@H](CCC(=O)O)C(=O)O)cc3)nc2c(=O)[nH]1 [folic acid]
dose response curves generated using pteroyltyrosine [125I] as label (whole milk folate binder): more nearly coincident

CN1c2c(nc(N)[nH]c2=O)NCC1CNc1ccc(C(=O)N[C@@H](CCC(=O)O)C(=O)O)cc1 (some centres unmarked) [N^5 -methyl THF, N-5-methyltetrahydrofolic acid]
dose response curves generated using pteroyltyrosine [125I] as label (whole milk folate binder): more nearly coincident

Nc1nc(O)c2nc(CNc3ccc(C(=O)N[C@@H](Cc4ccc(O)c([125I])c4)C(=O)O)cc3)cnc2n1 [pteroyltyrosine [^125 I]]
stability of radioiodinated product (assay performance on storage) [1]: no deterioration in assay performance
performance as radiolabel in CPB radioassay for folic acid (whole milk folate binder; folic acid concentration range of 0-20 ng/ml): effective radiolabel

Nc1nc2ncc(CNc3ccc(C(=O)N[C@@H](Cc4ccc(O)cc4)C(=O)O)cc3)nc2c(=O)[nH]1 [pteroyltyrosine, Pteroyl-L-Tyrosine]
hydrolysis by carboxypeptidase A (UV time course, final spectrum) (carboxypeptidase A): final spectrum was very similar to that of pteroic acid
